Data reported in publication PMC10349806 (Nature Communications, 2023).
Several values for one entry are separate records, joined by “and”; a condition that tells them apart may be missing. Equal entries are not always repeated.

Legend:
[1] = tested on: PfCRT variant E18A; assay: CQ uptake assay, oocytes expressing E18A; assay type: cell-based, Plasmodium falciparum
Description: (§1) Site-directed mutagenesis of PfCRT^Dd2 was performed as described using the megaprimer method with overlap extension[21],[54]. The primer pairs used are listed in Supplementary Table 6. Please note that a codon-optimized and oocyte-adapted version of PfCRT^Dd2 was used[22] (Supplementary Fig. 16). The resulting DNA fragment was cloned into the SP64T expression vector and verified by sequencing.
(§2) Oocytes were obtained as described previously. Briefly, adult (>2 years old) female X. laevis frogs (NASCO) were anesthetized in a cooled solution of ethyl 3-amino benzoate methanesulfonate (0.1%, w/v), followed by a surgical removal of parts of the ovary. The ovary lobes were carefully dissected and small pieces of oocytes were incubated in Ca^2+-free ND96 buffer (96 mM NaCl, 2 mM KCl, 1 mM MgCl2 buffered with 5 mM HEPES/NaOH, pH 7.5) supplemented with collagenase D (0.1%, w/v; Roche), BSA (0.5%, w/v), and 9 mm Na2HPO4 at 18 °C for 14-16 h while gentle shaking. After incubation, the oocytes were carefully washed several times with ND96 buffer (96 mM NaCl, 2 mM KCl, 1.8 mM CaCl2, 1 mM MgCl2 buffered with 5 mM HEPES/NaOH, pH 7.5) supplemented with 100 mg l^−1 gentamycin). Defolliculated and healthy-looking stage V-VI oocytes were manually selected for RNA microinjection. The RNA was generated as following: The codon-optimized sequences of PfCRT variants were cloned into the pSP64T expression vector. After vector linearization using the restriction endonucleases BamHI or SalI (New England Biolabs), transcription was performed using the in vitro SP6 mMessage mMachine Kit (Ambion)[34]. The obtained RNA was kept at −80 °C and diluted with nuclease-free water to a concentration of 0.6 μg μl^−1. Precision-bore glass capillary tubes (3.5-inch glass capillaries; Drummond Scientific Co.) were pulled on a vertical puller (P-87 Flaming/Brown micropipette puller, Sutter Instrument Co.), graduated, and placed on a microinjector (Nanoject II Auto-Nanoliter Injector, Drummond Scientific Co.). 50 nl of nuclease-free water alone (control oocytes) or 50 nl of 0.6 μg μl^−1 RNA were injected under stereomicroscopic control. Injected oocytes were incubated for 46–72 h at 18 °C with twice-daily buffer changes before usage in experiments.
(§3) Drug uptake assays were performed as described previously[21],[22],[24],[34]. […] The direction of radio-labeled drug transport is here from the mostly acidic extracellular solution (pH 4.5 or 6.0, as indicated) into the oocyte cytosol (pH ∼ 7.2), which corresponds to the efflux of drug from the acidic digestive vacuole (pH 5.2) into the parasite cytoplasm (pH 7.2). The topology of PfCRT in the oolemma is such that both the N- and C-terminus face the extracellular milieu[3],[22]. In the parasite, the N- and C-terminus face the lumen of the digestive vacuole. CQ uptake kinetics were performed by incubating oocytes in ND96 buffer adjusted to a pH of 4.5, 5.0, 5.5, or 6.0 and supplemented with 50 nM [^3H]CQ and one of 7 different CQ concentrations (10 µM, 50 µM, 100 µM, 200 µM, 300 µM, 400 µM, 500 µM CQ). The reaction was stopped at the 60 min time point, which is in the linear uptake range[22],[34] (Supplementary Fig. 17). For determination of the amount of drug uptake for each oocyte, the reaction medium was removed and the oocytes were washed three times with 2 ml of ice-cold ND96 buffer. Each oocyte was individually transferred to a scintillation vial containing 5% sodium dodecyl sulfate (200 μl) for lysis. The radioactivity of each sample was measured using a liquid scintillation analyzer Tri-Carb 4910 TR (PerkinElmer). Oocytes that were injected with water instead of RNA were analyzed in parallel, representing the uptake of a drug by diffusion and/or endogenous permeation pathways. The resulting value represents the “background“ level of drug accumulation in oocytes (in-depth discussion in[22]). […]

[2] = target: T1, PfCRT variant D410A (Plasmodium falciparum, UniProt Q9N623, A220S/D410A/I356T/K76T/M74I/N326S/N75E/Q271E/R371I); assay: CQ uptake assay, oocytes expressing D410A; assay type: cell-based
T1 sequence (Q9N623 1-424 M74I/N75E/K76T/A220S/Q271E/N326S/I356T/R371I/D410A): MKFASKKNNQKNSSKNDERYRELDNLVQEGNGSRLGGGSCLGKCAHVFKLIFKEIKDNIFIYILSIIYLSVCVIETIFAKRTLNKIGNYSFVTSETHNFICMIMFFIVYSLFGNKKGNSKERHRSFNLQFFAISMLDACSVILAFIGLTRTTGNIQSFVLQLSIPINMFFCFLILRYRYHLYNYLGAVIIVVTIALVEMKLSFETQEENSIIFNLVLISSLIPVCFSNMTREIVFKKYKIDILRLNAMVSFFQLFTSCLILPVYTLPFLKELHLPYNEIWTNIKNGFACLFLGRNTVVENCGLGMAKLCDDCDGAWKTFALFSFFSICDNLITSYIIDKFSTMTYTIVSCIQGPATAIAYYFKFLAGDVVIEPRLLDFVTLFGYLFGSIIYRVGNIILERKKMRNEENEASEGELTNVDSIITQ
Description: as §1, §2, §3

[3] = tested on: PfCRT variant E207F; assay: CQ uptake assay, oocytes expressing E207F; assay type: cell-based, Plasmodium falciparum
Description: as §1, §2, §3

[4] = tested on: PfCRT variant E207V; assay: CQ uptake assay, oocytes expressing E207V; assay type: cell-based, Plasmodium falciparum
Description: as §1, §2, §3

[5] = E18A, 50 µM CQ, 1 h, mean ± SEM
[6] = pH 4.5, single replicates, Fig 1d left
[7] = pH 6.0, single replicates, Fig 1d left
[8] = D410A, 50 µM CQ, 1 h, mean ± SEM
[9] = E207F, 50 µM CQ, 1 h, mean ± SEM
[10] = pH 4.5, individual replicates, Fig 6b
[11] = pH 6.0, individual replicates, Fig 6b
[12] = ratio of activity pH 4.5 / pH 6.0
[13] = E207V, 50 µM CQ, 1 h, mean ± SEM

CCN(CC)CCCC(C)Nc1ccnc2cc(Cl)ccc12 (stereo not drawn) [CQ, chloroquine]
Activity at pH 4.5 [1, 5]: 1.51 ± 0.34 pmol h-1 oocyte-1
Activity at pH 6.0 [1, 5]: 2.60 ± 0.53 pmol h-1 oocyte-1
R-value ([1]; E18A, CQ transport at pH 4.5 / pH 6.0): 0.57 ± 0.06
E18A transport activity pH 4.5 [1, 6]: 2.19 pmol oocyte-1 h-1 and 1.60 pmol oocyte-1 h-1 and 0.74 pmol oocyte-1 h-1
E18A R-value ([1]; pH 4.5 vs pH 6.0, Fig 1d left): 0.57 and 0.70 and 0.44
E18A transport activity pH 6.0 [1, 7]: 3.85 pmol oocyte-1 h-1 and 2.27 pmol oocyte-1 h-1 and 1.67 pmol oocyte-1 h-1
Activity at pH 4.5 [2, 8]: 2.38 ± 0.18 pmol h-1 oocyte-1
Activity at pH 6.0 [2, 8]: 5.09 ± 0.24 pmol h-1 oocyte-1
R-value ([2]; D410A, CQ transport at pH 4.5 / pH 6.0): 0.47 ± 0.06
D410A transport activity pH 4.5 [2, 6]: 2.74 pmol oocyte-1 h-1 and 1.99 pmol oocyte-1 h-1 and 2.40 pmol oocyte-1 h-1
D410A R-value ([2]; pH 4.5 vs pH 6.0, Fig 1d left): 0.60 and 0.35 and 0.47
D410A transport activity pH 6.0 [2, 7]: 4.58 pmol oocyte-1 h-1 and 5.61 pmol oocyte-1 h-1 and 5.09 pmol oocyte-1 h-1
Activity at pH 4.5 [3, 9]: 2.67 ± 0.27 pmol h-1 oocyte-1
Activity at pH 6.0 [3, 9]: 3.27 ± 0.42 pmol h-1 oocyte-1
R-value ([3]; E207F, CQ transport at pH 4.5 / pH 6.0): 0.84 ± 0.09
E207F transport activity pH 4.5 [3, 10]: 3.33 pmol oocyte-1 h-1 and 3.06 pmol oocyte-1 h-1 and 2.01 pmol oocyte-1 h-1 and 2.27 pmol oocyte-1 h-1
E207F transport activity pH 6.0 [3, 11]: 2.89 pmol oocyte-1 h-1 and 4.68 pmol oocyte-1 h-1 and 2.46 pmol oocyte-1 h-1 and 3.03 pmol oocyte-1 h-1
E207F R-value [3, 12]: 1.15 and 0.65 and 0.82 and 0.75
Activity at pH 4.5 [4, 13]: 2.0 ± 0.13 pmol h-1 oocyte-1
Activity at pH 6.0 [4, 13]: 2.09 ± 0.15 pmol h-1 oocyte-1
R-value ([4]; E207V, CQ transport at pH 4.5 / pH 6.0): 0.96 ± 0.02
E207V transport activity pH 4.5 [4, 10]: 2.33 pmol oocyte-1 h-1 and 1.85 pmol oocyte-1 h-1 and 1.83 pmol oocyte-1 h-1
E207V transport activity pH 6.0 [4, 11]: 2.45 pmol oocyte-1 h-1 and 1.85 pmol oocyte-1 h-1 and 1.96 pmol oocyte-1 h-1
E207V R-value [4, 12]: 0.95 and 1.00 and 0.93
